Measurements from patent US9687480B2, “Chiral 1-(4-methylphenylmethyl)-5-oxo-{N-[(3-t-butoxycarbonyl-aminomethyl)]-piperidin-1-yl)-pyrrolidine as inhibitors of collagen induced platelet activation and adhesion” (Council of Scientific & Industrial Research, priority 2011, dated 2017).

Legend:
GPVI = biological target: T1, GPVI (Homo sapiens, UniProt Q9HCN6); assay: GPVI-mediated platelet adhesion assay on fibrillar collagen (human, in vitro); type: cell-based; settings: for Platelet adhesion: Table 2 summary, collagen type not stated, effective concentration in brackets: mixture 100 μM, compound 6 30 & 100 μM, compound 7 100 μM; for human platelet adhesion on fibrillar collagen (GP VI mediated): in vitro, washed platelets, divalent cation-free
T1 construct: Washed platelets, suspended in the Tyrode's-HEPES buffer; endogenous in cells; host or cells: washed human platelets from healthy volunteers
T1 sequence (Q9HCN6 21-339): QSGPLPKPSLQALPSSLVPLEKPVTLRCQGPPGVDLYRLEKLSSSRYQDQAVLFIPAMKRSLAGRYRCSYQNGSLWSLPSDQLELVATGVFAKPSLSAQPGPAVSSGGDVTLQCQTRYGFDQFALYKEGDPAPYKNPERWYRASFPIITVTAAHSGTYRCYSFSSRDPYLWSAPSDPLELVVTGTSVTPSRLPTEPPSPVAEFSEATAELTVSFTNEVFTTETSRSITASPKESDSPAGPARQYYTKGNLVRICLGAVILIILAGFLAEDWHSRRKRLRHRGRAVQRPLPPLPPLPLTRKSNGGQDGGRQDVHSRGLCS
T1 sequence (P30273 19-86 partner): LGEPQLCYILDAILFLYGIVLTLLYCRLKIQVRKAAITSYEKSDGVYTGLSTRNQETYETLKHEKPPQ
Procedure: Fresh blood was drawn by venipuncture from consenting healthy human volunteers in citrate-phosphate-dextrose. Platelet-rich plasma (PRP) was obtained by centrifugation at 180 g for 20 minutes at room temperature (Beckman TJ6. USA). […] Platelets were then washed twice with Buffer (20 mMHEPES, 138 mM NaCl, 2.9 mMKCl, 1 mMMgCl2, 0.36 mMNaH2PO4, 1 mM EGTA, 4.77 mM trisodium citrate, and 2.35 mM citric acid, 5 mM glucose and Apyrase 1 U/ml, pH 6.5) containing 0.1% bovine serum albumin (BSA) and finally resuspended in the HEPES-buffered Tyrode solution (pH 7.4), to give a concentration of 2×10^8 cells/mL (Jandrot-Perrus M. Lagrue A H, Okuma M, and Boni C Adhesion and Activation of Human Platelets Induced by Convulxin Involve Glycoprotein VI and Integrin α2β1 J. Biol. Chem. 1997; 272: 27035-27041).
Integrin α2β1 binding on soluble collagen depends on the presence of Mg2+/Ca^2+ (Onley D. J., Knight C. G., Tuckwell D. S., Barnes M. J., and Farndale R. W. Micromolar Ca2+ concentrations are essential for Mg2+-dependent binding of collagen by the integrin α2β1 in human platelets. J. Biol. Chem, 2000; 275: 24560-24564.) while GPVI mediates adhesion over fibrillar collagen in absence of divalent ions (Nieswandt B., Brakebusch C, Bergmeier W, Schulte V, Bouvard D, Nejad R M, Lindhout T, Heemskerk J W M, Zirngibl H and Fassler R. Glycoprotein VI but not α2b1 integrin is essential for platelet interaction with collagen. The EMBO Journal, 2001; 20:2120-2130) and therefore the adhesion assays were performed in the presence or absence of these divalent cations. Ninety-six well micro titer plates were coated with insoluble equine tendon fibrillar type I collagen or soluble rat tail type I (non-fibrillar) collagen, maintained in acetate buffer (pH 4.5), (Nakamura T., Jamieson G. A., Okuma M., Kambayashi J., and Tendon N. N. Platelet Adhesion to Native Type I Collagen Fibrils: role of gpVI in divalent cation-dependent and -independent adhesion and thromboxane A2 generation. J. Biol. Chem 1998; 273: 4338-[…], Tendon N N, Ockenhouse C F, Greco N J, Jamieson G A. Adhesive functions of platelet lacking GPIV (CD36). Blood 1991: 78: 2809-13). The unoccupied protein binding sites on the wells were blocked with 5 mg/ml BSA at room temperature for 1 hour, and then rinsed once in PBS. Washed platelets, suspended in the Tyrode's-HEPES buffer (136.7 mM NaCl, 13.8 mM NaHCO3, 0.36 mM NaH2PO4.H2O, 2.6 mM KCl, 1.0 mM MgCl2.6H2O, 5.5 mM glucose, 0.5% BSA, pH 7.4) at 1×10^8 cells/mL were pre-incubated with compounds for 30 min at 37° C. and added to the wells (10^7/well) for 1 h at room temperature. Divalent cation-free adhesion buffer was made by replacing Mg^2+ (1 mM) in the Tyrode-HEPES buffer with 50 μM EDTA (Yoshida S., Sudo T., Niimi M., Tao L., Sun B., Kambayashi J., Watanabe H., Luo E., and Matsuoka H. Inhibition of collagen-induced platelet aggregation by anopheline antiplatelet protein, a saliva protein from a malaria vector mosquito. Blood 2007; 111: 2007-201). After three washes in Tyrode's buffer, the number of adherent platelets was evaluated colorimetrically (as described by Bellavite P., Andrioli G., Gizzo P., Arigliano P., Chirumbolo S., Manzato F, Santonastaso C. A colorimetric method for the measurement of platelet adhesion in microtifer plates. Anal. Biochem. 1994; 216:444-450. Briefly, 150 μl of a 0.1 M citrate buffer (pH 5.4), containing 5 mM p-nitrophenyl phosphate and 0.1% TritonX-100 was added to the wells after washing. After incubation for 60 min at 25° C. in the absence of ambient light, colour was developed by the addition of 100 μl of 2N NaOH and the absorbance at 405 nm was read using a microplate reader (Powerware XS, Biotek, USA).

hamster platelets = assay: Platelet adhesion on collagen coated surface (hyperlipidemic hamster model, ex vivo); type: in vivo, hamsters; settings: for Platelet adhesion hyperlipidemic hamsters: Table 2 summary; for platelet adhesion over collagen coated surface: hyperlipidemic hamsters, ex vivo
Procedure: Platelet adhesion to collagen was measured in polystyrene 96-well micro titer plates. Micro titer plates were coated with insoluble equine tendon native fibrillar type I collagen (Chrono-Log Corp. Havertown, USA), 2 μg/well in 5 mM acetic acid (Tandon N N, Ockenhouse C F, Greco […]. Adhesive functions of platelet lacking GPIV (CD36). Blood 1991; 78: 2809-13) overnight at 4° C. The unoccupied protein binding sites on the wells were blocked with 0.5% BSA in Tyrode's-HEPES buffer (136.7 mM NaCl, 13.8 mM NaHCO3. 0.36 mM NaH2PO4.H2O, 2.6 mM KCl, 1.0 mM MgCl2.6H2O, 5.5 mM glucose, pH 7.4) at room temperature for 1 hour, and then rinsed once with PBS. Washed platelets were suspended in the Tyrode's-HEPES buffer and added to the wells (2×10^7 cells/well) for 1 h at room temperature. After three washes with PBS, the number of adherent platelets was evaluated colorimetrically (Bellavite P., Andrioli G., Gizzo P., Arigliano P., Chirumbolo […] colorimetric method for the measurement of platelet adhesion in microtiter plates. Anal. Blochem. 1994; 216:444-450). Briefly, 150 μl of a 0.1 M citrate buffer (pH 5.4), containing 5 mM p-nitrophenyl phosphate and 0.1% TritonX-100 was added to the wells after washing. After incubation for 30 minutes at 25° C. in the absence of ambient light, colour was developed by the addition of 100 μl of 2N NaOH and the absorbance at 405 nm was read using a microplate reader (Powerware XS, Biotek, USA).

human α-thrombin = biological target: T2, human α-thrombin (Homo sapiens, UniProt P00734); assay: Amidolytic assay of thrombin activity (fluorogenic substrate); type: biochemical; settings: compound 1 at 300 μM and 1 mM after 15 min of substrate incubation
T2 construct: amidolytic activity of human α-thrombin using fluorogenic substrate

| Molecule | Platelet adhesion (GPVI) | Platelet adhesion hyperlipidemic hamsters (hamster platelets) | human platelet adhesion on fibrillar collagen (GP VI mediated) (GPVI) | thrombin amidolytic activity (human α-thrombin) | platelet adhesion over collagen coated surface (hamster platelets) |
| --- | --- | --- | --- | --- | --- |
| 1-(4-methylphenylmethyl)-5-oxo-{N-[(3-t-butoxycarbonyl-aminomethyl)]-piperidin-1-yl}-pyrrolidine-2-carboxamides [Compound 1] | Effective | Effective |  |  |  |
| Cc1ccc(CN2C(=O)CC[C@H]2C(=O)N2CCCC(CNC(=O)OC(C)(C)C)C2)cc1 (stereo partly drawn) [Compound 1, 1-(4-methylphenylmethyl)-5-oxo-{N-[(3-t-butoxycarbonyl-aminomethyl)]-piperidin-1-yl}-pyrrolidine-2-carboxamides] |  |  | partially inhibited | significant inhibitory effect | significant reduction |
| Cc1ccc(CN2C(=O)CC[C@H]2C(=O)N2CCC[C@@H](CNC(=O)OC(C)(C)C)C2)cc1 [Compound 6] | Effective (30 | Effective | partially inhibited | remained ineffective | significant inhibition |
| Cc1ccc(CN2C(=O)CC[C@H]2C(=O)N2CCC[C@H](CNC(=O)OC(C)(C)C)C2)cc1 [Compound 7, (2S)-1-(4-methylphenylmethyl)-5-oxo-(3R)-{N-[(3-t-butoxycarbonyl-aminomethyl)]-piperidin-1-yl}-pyrrolidine-2-carboxamide] | Effective | No effect | partially inhibited | actively attenuated | no effect |
